According to patent US10487117B2, “Antimicrobial peptide for nosocomial infections” (priority 2015, dated 2019):
Like-named read-outs stand apart in the source and are kept apart here. Residues, ends and D or L forms follow the SMILES beside them.

Tests used:
Assay type in all cases: cell-based, Pseudomonas aeruginosa
planktonic P. aeruginosa [1] = assay: SYTOX Green membrane permeabilization assay, planktonic; settings: for Permeabilization %max: 10% Triton X-100 as maximum reference
Protocol: Further insight into the membrane-permeabilizing effect of the selected AMPs against P. aeruginosa was evaluated by the Sytox Green assay. Local membrane disturbances allow the cell uptake of the fluorescent Sytox Green dye that subsequently stains the cell nucleic acids; the fluorescence increase is registered to monitor the cell membrane permeabilization. Therefore, the half permeabilization action (ED50) was measured, and the total permeabilization activity expressed as a percentage (Table 5). […] On the other hand, WY-12 and CA-M required a 6- to 7-fold greater concentration than RNase 3 to produce half of their permeabilizing effect.
Membrane permeabilization was followed using the method SYTOX Green Fluorescence membrane permeabilization assay. In the planktonic assay, bacterial cells were grown at 37° C. to an OD600=0.2, centrifuged at 5000×g for 5 min, and resuspended in 1×PBS to an OD600=0.2. An aliquot of 200 μl was then transferred to a microtiter plate. For biofilm assay, 24 h formed P. aeruginosa biofilm in a 96-well microtiter plate were washed three times with sterile PBS. SYTOX Green was added to a final concentration of 1 μM and incubated 15 min in darkness. Changes in the fluorescence were continuously recorded after addition of a serially diluted protein/peptides from 50 to 0.1 μM in a Victor3 plate reader. The peptide concentration required to achieve half of total and total membrane permeabilization achieved after 40 min was estimated from nonlinear regression analysis as previously described (Pulido D. et al. Antimicrob Agents Chemother 2013). A maximum reference value was taken for Triton X-100 at 10%.

planktonic P. aeruginosa [2] = assay: DiSC3(5) cytoplasmic membrane depolarization assay, planktonic; settings: for Depolarization %max: 10% Triton X-100 as maximum reference
Protocol: To further investigate the antimicrobial mechanism of action of the peptide, its ability to depolarize P. aeruginosa membranes was evaluated. Depolarization activity was analyzed by the DiSC3(5) assay (Table 5). DiSC3(5) is a fluorescent probe, which is sensitive to membrane potential. The DiSC3(5) fluorescence is quenched upon interaction with intact cell membranes. When the membrane potential is lost, the probe is released to the medium, resulting in an increase of fluorescence that can be recorded as a function of peptide concentration. Thus, the half depolarization action (ED50) was evaluated, defined as the peptide concentration needed to achieve a half-depolarization effect, and the total depolarization activity at final incubation time (Table 3).
Membrane depolarization was followed using the method described earlier (Torrent M. et al. 2008). Briefly, bacterial cells were grown at 37° C. to an OD600=0.2, centrifuged at 5000×g for 7 min, washed with 5 mM Hepes at pH 7.2 containing 20 mM glucose, and resuspended in 5 mM Hepes-KOH, 20 mM glucose, and 100 mM KCl at pH 7.2 to an OD600=0.05 and 200 μl were transferred to a microtiter plate for planktonic assays. For biofilm assay, 24 h formed P. aeruginosa biofilm in a 96-well microtiter plate were washed three times with sterile PBS. Afterwards P. aeruginosa biofilms were washed with 5 mM Hepes at pH 7.2 containing 20 mM glucose, and rinsed in 5 mM Hepes-KOH, 20 mM glucose, and 100 mM KCl at pH 7.2. In both cases, DiSC3(5) was added to a final concentration of 0.4 μM and changes in the fluorescence were continuously recorded after addition of peptides at 10 μM in a Victor3 plate reader. A maximum reference value for total depolarization is calculated for Triton X-100 at 10%. Alternatively, changes in the fluorescence were continuously recorded after addition of a serially diluted protein/peptides from 50 to 0.1 μM. The peptide concentration required to achieve half of total and total membrane depolarization after 40 min incubation time was estimated from nonlinear regression analysis as previously described (Torrent M. et al. 2010)

[3] = system: pre-established P. aeruginosa biofilm; assay: Biofilm eradication assay, crystal violet staining; settings: 24 h formed biofilm; 4 h at 37° C.; 10% Triton X-100 as maximum reference
Protocol: Following, the biofilm eradication activity was determined (FIG. 1 and Table 6). […] Moreover, the biofilm eradication activity of all the tested reference peptides was well above the maximum concentration tested (50 μM), except for RN3(5-17P22-36) which was able to eradicate the biofilm close to 50 μM.
Biofilm formation assay was modified from the previously described protocol (Huedo P. et al. 2014). Briefly, overnight cultures of P. aeruginosa were centrifuged at 5000×g for 5 min, washed and adjusted to an OD600=0.1 in tryptic soy medium (TSB). Two hundred microliters of the bacterial suspension were dispensed in each well of a polystyrene 96-well microtiter plate (Greiner Bio-one, France). The plate was incubated at 37° C. on an orbital shaker (30 rpm). The media was exchanged with fresh pre-warmed TSB after 4 h, in order to remove the non-attached bacteria. After 24 h incubation, the formation of biofilm was then evaluated using the crystal violet staining technique (Stepanovic S. et al. 2000). Briefly, the plates were washed three times with PBS, fixed at 60° C. for 1 h, and stained for 15 min with 200 μl of 0.1% crystal violet. After the dye was discarded, plates were rinsed in PBS and allowed to dry for 30 min at 37° C. Crystal violet was dissolved in 250 μl of 95% ethanol for 15 min, and the OD570 of the extracted dye was measured using a Victor3 plate reader (Perkin-Elmer, Waltham, Mass.).
Biofilms were grown as above. Twenty-four hour formed P. aeruginosa biofilm was washed three times with sterile PBS, and rinsed with 10 mM sodium phosphate buffer pH 7.5. Each well was treated with increasing protein/peptide concentrations (from 0.01 to 50 μM) and incubated at 37° C. for 4 h. The biofilm eradication was then evaluated using the crystal violet staining technique (Stepanovic S. et al. 2000). The ability of the antimicrobial peptides to disperse and reduce the biofilm mass of preformed biofilms was calculated. The peptide concentration required to achieve total preformed biofilm eradication after 4 h incubation time was estimated. A maximum reference value was taken for Triton X-100 at 10%. The minimum biofilm eradication concentration (MBEC), defined as the protein/peptide concentration where the 99.9% of the biofilm mass is eradicated was estimated.

planktonic P. aeruginosa [4] = system: planktonic P. aeruginosa
Protocol: The microbial cell viability was then assayed using the BacTiter-Glo™ luminescent kit. […] No cell reduction was detected for the peptide GL-13 even for the maximum concentration assayed (50 μM).
Bacterial viability was assayed using the BacTiter-Glo™ microbial cell viability kit. Briefly, protein/peptides were dissolved in 10 mM sodium phosphate, 0.1M buffer, pH 7.5, serially diluted from 50 to 0.1 μM and tested in a 96-well microtiter plate containing P. aeruginosa planktonic (OD600˜0.2) or 24 h formed biofilm for 4 h at 37° C. Fifty microliters of BacTiter-Glo™ reagent was added to each well according to the manufacturer's instructions and incubated at room temperature for 15 min. Luminescence was read on a Victor3 plate reader with a 3-s integration time. Fifty percent (ED50) and total inhibitory concentrations were calculated by fitting the data to a dose-response curve.

[5] = planktonic P. aeruginosa, 4 h at 37° C., mean ± SEM, N.D. = not detected at 50 μM, read-out: IC50 (50% bacterial viability)
[6] = 40 min, N.D. = not detected at 50 μM

CC[C@H](C)[C@H](NC(=O)CNC(=O)[C@@H](NC(=O)[C@H](CCCCN)NC(=O)[C@H](CCCCN)NC(=O)[C@H](Cc1ccccc1)NC(=O)[C@H](CC(C)C)NC(=O)[C@H](CCCCN)NC(=O)[C@H](Cc1c[nH]c2ccccc12)NC(=O)[C@@H](N)CCCCN)[C@@H](C)CC)C(=O)NCC(=O)N[C@@H](C)C(=O)N[C@H](C(=O)N[C@@H](CC(C)C)C(=O)N[C@@H](CCCCN)C(=O)N[C@H](C(=O)N[C@@H](CC(C)C)C(=O)N[C@H](C(=O)N[C@H](C(=O)NCC(=O)N[C@@H](CC(C)C)C(=O)N1CCC[C@H]1C(=O)N[C@@H](C)C(=O)N[C@@H](CC(C)C)C(=O)N[C@H](C(=O)N[C@@H](CO)C(N)=O)[C@@H](C)CC)[C@@H](C)O)[C@@H](C)O)C(C)C)C(C)C [CA-M]
Permeabilization %max (planktonic P. aeruginosa [1]): 34.69 ± 2.18% | Depolarization %max (planktonic P. aeruginosa [2]): 71.36 ± 7.60% | Biofilm eradication (%max) [3]: 53.03 ± 1.46% | IC50 (planktonic P. aeruginosa [4]; [5]): 2540 ± 1080 nM

CC[C@H](C)[C@H](NC(=O)[C@H](CCC(N)=O)NC(=O)CN)C(=O)N[C@H](C(=O)N[C@@H](CC(N)=O)C(=O)N[C@@H](CC(C)C)C(=O)N[C@@H](CCCCN)C(=O)N[C@@H](C)C(=O)N[C@@H](CO)C(=O)N[C@@H](CC(C)C)C(=O)N[C@@H](CC(=O)O)C(=O)N[C@@H](CC(C)C)C(=O)N[C@@H](CC(C)C)C(N)=O)[C@@H](C)CC [GL-13, GQIINLKASLDLL-NH2] (H-GQIINLKASLDLL-NH2)
Permeabilization ED50 (planktonic P. aeruginosa [1]; [6]): unable to perform any cell membrane permeabilization | Depolarization ED50 (planktonic P. aeruginosa [2]; [6]): not able to produce any depolarization effect | Biofilm eradication (%max) [3]: 33.28 ± 1.07% | IC50 (planktonic P. aeruginosa [4]; planktonic, 4 h): > 50000 nM

CC[C@H](C)[C@H](NC(=O)[C@H](CCCCN)NC(=O)[C@H](CCC(=O)O)NC(=O)[C@H](CCCCN)NC(=O)[C@H](CO)NC(=O)[C@H](CCCCN)NC(=O)[C@H](CCCNC(=N)N)NC(=O)[C@H](Cc1ccccc1)NC(=O)[C@H](Cc1ccccc1)NC(=O)[C@H](CC(=O)O)NC(=O)CNC(=O)[C@H](CC(C)C)NC(=O)[C@@H](N)CC(C)C)C(=O)NCC(=O)N[C@@H](CCCCN)C(=O)N[C@@H](CCC(=O)O)C(=O)N[C@@H](Cc1ccccc1)C(=O)N[C@@H](CCCCN)C(=O)N[C@@H](CCCNC(=N)N)C(=O)N[C@H](C(=O)N[C@H](C(=O)N[C@@H](CCC(N)=O)C(=O)N[C@@H](CCCNC(=N)N)C(=O)N[C@H](C(=O)N[C@@H](CCCCN)C(=O)N[C@@H](CC(=O)O)C(=O)N[C@@H](Cc1ccccc1)C(=O)N[C@@H](CC(C)C)C(=O)N[C@@H](CCCNC(=N)N)C(=O)N[C@@H](CC(N)=O)C(=O)N[C@@H](CC(C)C)C(=O)N[C@H](C(=O)N1CCC[C@H]1C(=O)N[C@@H](CCCNC(=N)N)C(=O)N[C@H](C(=O)N[C@@H](CCC(=O)O)C(=O)N[C@@H](CO)C(N)=O)[C@@H](C)O)C(C)C)[C@@H](C)CC)C(C)C)[C@@H](C)CC [LL-37]
Permeabilization %max (planktonic P. aeruginosa [1]): 38.80 ± 1.13% | Depolarization %max (planktonic P. aeruginosa [2]): 28.24 ± 2.91% | Biofilm eradication (%max) [3]: 35.54 ± 1.13% | IC50 (planktonic P. aeruginosa [4]; [5]): 2280 ± 220 nM
